Laboratory results: ChEMBL document CHEMBL1806462, “Discovery of pyrrolo[2,1-f][1,2,4]triazine C6-ketones as potent, orally active p38α MAP kinase inhibitors” (Bioorg Med Chem Lett, 2011)

Legend:
Liver microsomes = experiment: Clearance in human liver microsomes; type: ADME, Microsome
[1] = Cmax in rat at 10 mg/kg, po; type: ADME, organism-based; parameters: dose 10 mg/kg, route oral; conditions: in vivo
[2] = Plasma concentration in rat at 10 mg/kg, po after 4 hrs; type: ADME, organism-based; parameters: dose 10 mg/kg, route oral
Rattus norvegicus = experiment: AUC (0 to 4 hrs) in rat at 10 mg/kg, po; type: ADME, organism-based, Plasma; parameters: time < 4 hr, dose 10 mg/kg, route oral; conditions: in vivo

CL (Liver microsomes) | Cmax [1] | concentration at 4 h [2] | AUC (Rattus norvegicus) | Structure (SMILES)
0.08 nmol/min/mg | 752 ng/mL | 550 ng/mL | 2300 ng·h/mL | Cc1ccc(C(=O)NC2CC2)cc1Nc1ncnn2cc(C(=O)c3ccccc3)c(C)c12
0.16 nmol/min/mg |  |  |  | COC(=O)NC(=O)c1ccc(C)c(Nc2ncnn3cc(C(=O)c4ccccc4)c(C)c23)c1
